Consider two compounds from patent publication US20210230300A1, “INHIBITORS OF SHP2” (Bayer Aktiengesellschaft, priority 2018, published 2021).

The test system of series [1] is Mouse 10 day unilateral ureter obstruction (UUO) model. Briefly: Mouse 10 day UUO model, histology (αSMA and Sirius Red/Fast Green collagen staining). In kind it is in vivo. The method, then:
(§1) The study was performed on male C57/B16J mice (age: 7-8 weeks) that were obtained from Charles River. Mice were anesthetized with continuous inhaled isoflurane, and the left ureter was exposed via a mid-abdominal incision. The mid-ureter was obstructed by two point ligation with silk sutures. The SHAM-operated mouse (n=6) underwent the same procedure except for the obstruction of the left ureter.
(§2) The mice were randomized into four groups (n=10 each group): UUO plus vehicle (10% EtOH/40% PEG/50% water), UUO plus 3 [mg/kg] […] SHP099. Mice were dosed bidaily with vehicle and SHP099. The forth group of mice with UUO was treated once daily with Tivozanib (technical control). At ten days after surgery, mice were euthanized, and kidneys were collected and divided in two parts.
(§3) One part was snap-frozen in liquid nitrogen for RNA analysis. The other part was stored in Davidson's fixative for the preparation of histological sections. Total RNA was isolated from parts of harvested kidneys. Kidney tissue was homogenized and RNA was obtained and transcribed to cDNA. Using TaqMan real time PCR renal mRNA expression of fibrotic markers was analyzed in kidney tissues. For the assessment of fibrosis on the protein level paraffin tissue sections were stained with alpha-smooth muscle actin (αSMA) and Sirius Red/Fast Green Collagen Stainings using standard procedures.
Quantitative measurements of alpha-smooth muscle actin (αSMA)-positive as well as Sirius Red (Collagen) positive areas within the kidneys were obtained by computer image analysis using the Axio Scan Z1 (Zeiss) microscope and the Zen software.
(§4) All data are expressed as means±S.D. Differences between groups were analyzed by one-way ANOVA with Dunnett's corrections for multiple comparisons. Statistical significance was defined as p<0.05.
(§5) After 10 days, the weight of the kidneys was measured, and RNA-markers αSMA, Col1α1, Col3α1, Col4α1 were measured with RT PCR. Further, histological measurements of αSMA (Alpha smooth muscle actin) and Collagen (SR/FG) were carried out.

The subject of series [2] is mouse renal ischemia reperfusion injury (IRI) model. Kind of series: Mouse uninephrectomy/renal ischemia reperfusion injury (uIRI) model. The class given is in vivo. The settings on record: 30 [mg/kg] SHP099 p.o. BID. The method, then: Experiments indicative for acute kidney diseases were carried out in a uninephrectomy/renal ischemia reperfusion injury (uIRI) model (example 3), as e.g. disclosed in Skrypnyk et al (2013).
In a mouse renal ischemia reperfusion injury (IRI) model, uninephrectomy (UNX) with unilateral renal ischemia (RI), was carried out. Therein, one kidney is removed and the remaining kidney undergoes ischemia/reprefusion via renal artery claming, Animals were then treated according to the following groups: […]

Another series is described as follows: log D. In kind it is physicochemical.
Series [3] deals with Mouse 10 day unilateral ureter obstruction (UUO) model. Briefly: Mouse 10 day UUO model, renal mRNA expression of fibrotic markers (TaqMan real time PCR). The class given is in vivo. The settings on record: for Col1α1 mRNA expression, percentage vs. placebo / Col3α1 mRNA expression, percentage vs. placebo / Col4α1 mRNA expression, percentage vs. placebo / αSMA mRNA expression, percentage vs. placebo: kidney. How it is done: as §1, §2, §3, §4, §5

Series [4] has as its system Mouse 3 day unilateral ureter obstruction (UUO) model. Kind of series: Mouse 3 day unilateral ureter obstruction (UUO) model, macrophage infiltration by flow cytometry (CD45, F4/80). Particulars: 3 day UUO. The class given is in vivo. How it is done: As a placebo, a solution without active ingredient was used (group 2), and a sham operated group with unligated kidney was used as a positive control (group 1)
The infiltration of macrophages in response to the renal injury was measured in a flow cytometry assay with detection antibodies binding to the pan-leukocyte marker CD45, as well as to the macrophage-specific antigen, F4/80.

[5] abbreviates: SHP099 3 and 30 mg/kg bidaily, result in words.
Where [6] appears, read: Tivozanib once daily (technical control).

Entries after “also recorded” stand apart in the source; their conditions may differ. Marks after values point to notes of the source that are not given here.

For the compound `CC1(N)CCN(c2cnc(-c3cccc(Cl)c3Cl)c(N)n2)CC1` [SHP099], the “αSMA-positive area within the obstructed kidney” value in series [1] (3 [mg/kg] SHP099 bidaily) was “significant reduction”. Besides, in series [1] (SHP099 treated, compared to untreated or Tivozanib treated mice, dose not stated), the “collagen deposition in kidneys” value was “strong and significant reduction”. The “aSMA-positive area in kidneys” value in series [1] (SHP099 treated, dose not stated) is “strong and significant reduction”. Besides, the “Collagen content (SR/FG staining)” value in series [1] (both dosages of SHP099 (3 and 30 mg/kg bidaily)) is “dose dependently and significantly reduced”. In addition, in series [2], the “podocyte marker NHPS1 expression” value is “reproducible and strong effects”; the serum creatinine result is reported as “robust reduction”; the serum urea result is recorded as “mild reduction”. In “log D”, the “log D” value is 1.7. Also, in series [3] (setting [5]), the “collagen RNA expression in kidney (Collagen 1a1, 3a1, 4a1)” value is “strong and very significant reduction; also recorded: dose-dependent reduction”; the “αSMA RNA expression in kidney” value is “strong and very significant reduction; also recorded: dose-dependent reduction”. Moreover, in series [3] (3 [mg/kg] SHP099 bidaily), the “Col1α1 mRNA expression, percentage vs. placebo” value came to 77%; the “Col3α1 mRNA expression, percentage vs. placebo” value came out at 82%; the “Col4α1 mRNA expression, percentage vs. placebo” value stood at 85%; the “αSMA mRNA expression, percentage vs. placebo” value was 81%. Besides, in series [3] (30 [mg/kg] SHP099 bidaily), the “Col1α1 mRNA expression, percentage vs. placebo” value was determined as 51%; the “Col3α1 mRNA expression, percentage vs. placebo” value is 54%; the “Col4α1 mRNA expression, percentage vs. placebo” value was 56%; the “αSMA mRNA expression, percentage vs. placebo” value came out at 47%. Moreover, the macrophage infiltration result in series [4] (100 mg/kg SHP099 BID p.o.) is given as “significant, dose-dependent reduction”.
As for `COc1cc2nccc(Oc3ccc(NC(=O)Nc4cc(C)on4)c(Cl)c3)c2cc1OC` [Tivozanib], in series [1] (setting [6]), the “Collagen content (SR/FG staining)” value is “significantly reduced” and the “αSMA-positive area within the obstructed kidney” value is listed as “significantly reduced”. For the same compound, in series [3] (setting [6]), the “Col1α1 mRNA expression, percentage vs. placebo” value came out at 62%; the “Col3α1 mRNA expression, percentage vs. placebo” value is 76%; the “Col4α1 mRNA expression, percentage vs. placebo” value is given as 71%; the “αSMA mRNA expression, percentage vs. placebo” value was 64* %. Besides, the macrophage infiltration entry in series [4] (3 mg/kg Tivozanib QD p.o., in comparison with SHP099) was “weaker effects”.
